Patent US20110200992A1, “Biological Compositions, Articles and Methods for Monitoring Sterilization Processes” (priority 2008, published 2011)

Experiments:
Type in all cases: cell-based
[1] = tested on: Gb. stearothermophilus spores; assay: Fluorescence with spores after dye medium was exposed to sterilization temperature, autoclaved vs not autoclaved (Example 2); conditions: ex 485/em 530 nm, 50° C.
Procedure: Dilutions of a Gb. stearothermophilus spore suspension described above were subjected to heat shock treatment at 80° C. for 10 min. The dilutions were prepared using Sterile Water For Irrigation (Baxter, Deerfield, Ill.) and tested at a final population of 1×10^6 and 0 spores. The spore dilutions (100 microlitres) were combined with 200 microlitres of medium, consisting of Acridine Orange and nutrients as described in Example 1, that had been subjected to a 15 min 121° C. (250° F.) vacuum assisted cycle in a AMSCO Scientific SG-120 Eagle/Century Series steam sterilizer (Steris, Mentor Ohio), and each of the resulting mixtures was added to a well of a plate. Un-autoclaved medium was used as a control. […] The experiment was performed with both heat shocked and non-heat shocked spores. A summary of the normalized data is listed below in Tables 2a-2c.

[2] = tested on: spores of Gb stearothermophilus; assay: Fluorescence intensity vs. time of spore suspension with dye, with or without nutrients (Example 1); conditions: Acridine Orange 6.6 μM, ex 485 nm, em 530 nm, 50° C.; for Fluorescence Intensity of Spore Suspension with Dye: no nutrients
Procedure: Spore suspensions of Gb. stearothermophilus (also known as Bacillus stearothermophilus) were prepared by known methods as described in Example 1 of U.S. Pat. No. 5,418,167 ([…] et al.). Modifications of these methods and alternative methods known to those skilled in the art may also be used for preparing these suspensions. Representative cell-permeant dyes from the following classes: green fluorescent nucleic acid stains, red fluorescent nucleic acid stains, and Acridine Orange were tested with spores of Gb stearothermophilus. Specifically, 100 microliters of the spore suspension described above were combined with 200 microlitres of a 1:5000 dilution of the dye with Sterile Water For Irrigation (Baxter, Deerfield, Ill.) or with nutrients glucose, fructose, and potassium chloride in water (1 mg/ml, 1 mg/ml, and 3.3 mgs/ml, respectively), 0.2 M valine, 0.04 M isoleucine, 0.2 M methionine, 4 mg/ml inosine, and 0.4 M alanine. The fluorescence intensity of each of the resulting suspensions was monitored at an incubation temperature of 50° C., using the following dyes at the concentrations and excitation and emission wavelengths indicated below: SYTO 24: 1.0 μM (micromolar); excitation at 485 nm, emission at 530 nm; Acridine Orange: 6.6 μM; excitation at 485 nm, emission at 530 nm; SYTO 64: 1.0 μM; excitation at 530 nm, emission at 620 nm. The dyes are available from Invitrogen, (Carlsbad, Calif.). Fluorescence was monitored in a Biotek FL600 fluorimeter or Biotek Synergy 4 plate reader (Biotek, Winooski, Vt.).

[3] = tested on: Gb. stearothermophilus spores on a polypropylene carrier; assay: Change in fluorescence of biological indicators after lethal and sub-lethal sterilization cycles (Example 4); conditions: 485/530 nm, 1×E5 spores, 1:5000 dye, incubated 50° C.
Procedure: Eighty biological indicators (BIs) were prepared by coating a suspension of Gb. stearothermophilus spores at a concentration of 1×E5 on a polypropylene carrier. Following drying at 37° C. for 20 min, the BIs were exposed to commonly used sterilization conditions as described below in Tables 4a, 4b, and 4c. Following sterilization the BIs were activated with a medium, exposed to the same sterilization conditions as the spores and containing of a 1:5000 dilution of Acridine Orange along with glucose, fructose, and potassium chloride in water (1 mg/ml, 1 mg/ml, and 3.3 mgs/ml, respectively), 0.02 M alanine, 0.01 M valine, 0.002 M isoleucine, 0.2 mg/ml inosine, and a small amount of Bromo Cresol Purple. The combination of the medium with the spores on the carrier, subjected to lethal and sub-lethal sterilization processes shown in Tables 4a-4c, was incubated at 50° C. for 60 min, and fluorescence intensity readings were taken at 30 and 60 min using excitation at 485 nm and emission at 530 nm.

[4] = 1 min in 132° C. (270° F.) Gravity Cycle, AMSCO EAGLE Model 2013 Steam Sterilizer
[5] = 1 min in 132° C. (270° F.) Vacuum Assisted Cycle, Joslyn BIER Vessel
[6] = 3 min in 132° C. (270° F.) Gravity Cycle, AMSCO EAGLE Model 2013 Steam Sterilizer
[7] = 3 min in 132° C. (270° F.) Vacuum Assisted Cycle, Joslyn BIER Vessel
[8] = 5 min in 121° C. (250° F.) Vacuum Assisted Cycle, Joslyn BIER Vessel
[9] = 15 min in 121° C. (250° F.) Vacuum Assisted Cycle, Joslyn BIER Vessel

## CN(C)c1ccc2cc3ccc(N(C)C)cc3nc2c1 [Acridine Orange]
[1]; Autoclaved (15 min 121° C.) dye + nutrient medium, heat shocked E6 germinating spores, 0 min
  Fluorescence intensity (normalized): 0
[1]; Autoclaved (15 min 121° C.) dye + nutrient medium, heat shocked E6 germinating spores, 30 min
  Fluorescence intensity (normalized): 6211.5
[1]; Autoclaved (15 min 121° C.) dye + nutrient medium, heat shocked E6 germinating spores, 60 min
  Fluorescence intensity (normalized): 8652.5
[1]; Autoclaved (15 min 121° C.) dye + nutrient medium, heat shocked E6 germinating spores, 90 min
  Fluorescence intensity (normalized): 9955.5
[1]; Autoclaved (15 min 121° C.) dye + nutrient medium, heat shocked E6 germinating spores, 120 min
  Fluorescence intensity (normalized): 10376.5
[1]; Autoclaved (15 min 121° C.) dye + nutrient medium, heat shocked E6 germinating spores, 150 min
  Fluorescence intensity (normalized): 10694.25
[1]; Autoclaved (15 min 121° C.) dye + nutrient medium, heat shocked E6 germinating spores, 180 min
  Fluorescence intensity (normalized): 10803
[1]; Autoclaved (15 min 121° C.) dye + nutrient medium, heat shocked, 0 spores, 0 min
  Fluorescence intensity (normalized): 0
[1]; Autoclaved (15 min 121° C.) dye + nutrient medium, heat shocked, 0 spores, 30 min
  Fluorescence intensity (normalized): 522.25
[1]; Autoclaved (15 min 121° C.) dye + nutrient medium, heat shocked, 0 spores, 60 min
  Fluorescence intensity (normalized): 588.75
[1]; Autoclaved (15 min 121° C.) dye + nutrient medium, heat shocked, 0 spores, 90 min
  Fluorescence intensity (normalized): 779.75
[1]; Autoclaved (15 min 121° C.) dye + nutrient medium, heat shocked, 0 spores, 120 min
  Fluorescence intensity (normalized): 870
[1]; Autoclaved (15 min 121° C.) dye + nutrient medium, heat shocked, 0 spores, 150 min
  Fluorescence intensity (normalized): 886.5
[1]; Autoclaved (15 min 121° C.) dye + nutrient medium, heat shocked, 0 spores, 180 min
  Fluorescence intensity (normalized): 960.5
[1]; Autoclaved (15 min 121° C.) dye + nutrient medium, non-heat shocked E6 germinating spores, 0 min
  Fluorescence intensity (normalized): 0
[1]; Autoclaved (15 min 121° C.) dye + nutrient medium, non-heat shocked E6 germinating spores, 14 min
  Fluorescence intensity (normalized): 609
[1]; Autoclaved (15 min 121° C.) dye + nutrient medium, non-heat shocked E6 germinating spores, 30 min
  Fluorescence intensity (normalized): 2599
[1]; Autoclaved (15 min 121° C.) dye + nutrient medium, non-heat shocked E6 germinating spores, 44 min
  Fluorescence intensity (normalized): 4753
[1]; Autoclaved (15 min 121° C.) dye + nutrient medium, non-heat shocked E6 germinating spores, 58 min
  Fluorescence intensity (normalized): 6508
[1]; Autoclaved (15 min 121° C.) dye + nutrient medium, non-heat shocked, 0 spores, 0 min
  Fluorescence intensity (normalized): 0
[1]; Autoclaved (15 min 121° C.) dye + nutrient medium, non-heat shocked, 0 spores, 14 min
  Fluorescence intensity (normalized): −212
[1]; Autoclaved (15 min 121° C.) dye + nutrient medium, non-heat shocked, 0 spores, 30 min
  Fluorescence intensity (normalized): −263
[1]; Autoclaved (15 min 121° C.) dye + nutrient medium, non-heat shocked, 0 spores, 44 min
  Fluorescence intensity (normalized): −278
[1]; Autoclaved (15 min 121° C.) dye + nutrient medium, non-heat shocked, 0 spores, 58 min
  Fluorescence intensity (normalized): −287
[1]; Not autoclaved dye + nutrient medium, heat shocked E6 germinating spores, 0 min
  Fluorescence intensity (normalized): 0
[1]; Not autoclaved dye + nutrient medium, heat shocked E6 germinating spores, 30 min
  Fluorescence intensity (normalized): 11623.75
[1]; Not autoclaved dye + nutrient medium, heat shocked E6 germinating spores, 60 min
  Fluorescence intensity (normalized): 17121.25
[1]; Not autoclaved dye + nutrient medium, heat shocked E6 germinating spores, 90 min
  Fluorescence intensity (normalized): 18928.25
[1]; Not autoclaved dye + nutrient medium, heat shocked E6 germinating spores, 120 min
  Fluorescence intensity (normalized): 19653.75
[1]; Not autoclaved dye + nutrient medium, heat shocked E6 germinating spores, 150 min
  Fluorescence intensity (normalized): 19884.5
[1]; Not autoclaved dye + nutrient medium, heat shocked E6 germinating spores, 180 min
  Fluorescence intensity (normalized): 20008.25
[1]; Not autoclaved dye + nutrient medium, heat shocked, 0 spores, 0 min
  Fluorescence intensity (normalized): 0
[1]; Not autoclaved dye + nutrient medium, heat shocked, 0 spores, 30 min
  Fluorescence intensity (normalized): 813
[1]; Not autoclaved dye + nutrient medium, heat shocked, 0 spores, 60 min
  Fluorescence intensity (normalized): 875.75
[1]; Not autoclaved dye + nutrient medium, heat shocked, 0 spores, 90 min
  Fluorescence intensity (normalized): 996.25
[1]; Not autoclaved dye + nutrient medium, heat shocked, 0 spores, 120 min
  Fluorescence intensity (normalized): 1099
[1]; Not autoclaved dye + nutrient medium, heat shocked, 0 spores, 150 min
  Fluorescence intensity (normalized): 1114.5
[1]; Not autoclaved dye + nutrient medium, heat shocked, 0 spores, 180 min
  Fluorescence intensity (normalized): 990.25
[1]; Not autoclaved dye + nutrient medium, non-heat shocked E6 germinating spores, 0 min
  Fluorescence intensity (normalized): 00
[1]; Not autoclaved dye + nutrient medium, non-heat shocked E6 germinating spores, 14 min
  Fluorescence intensity (normalized): 597
[1]; Not autoclaved dye + nutrient medium, non-heat shocked E6 germinating spores, 30 min
  Fluorescence intensity (normalized): 2878
[1]; Not autoclaved dye + nutrient medium, non-heat shocked E6 germinating spores, 44 min
  Fluorescence intensity (normalized): 5314
[1]; Not autoclaved dye + nutrient medium, non-heat shocked E6 germinating spores, 58 min
  Fluorescence intensity (normalized): 7289
[1]; Not autoclaved dye + nutrient medium, non-heat shocked, 0 spores, 0 min
  Fluorescence intensity (normalized): 0
[1]; Not autoclaved dye + nutrient medium, non-heat shocked, 0 spores, 14 min
  Fluorescence intensity (normalized): −334
[1]; Not autoclaved dye + nutrient medium, non-heat shocked, 0 spores, 30 min
  Fluorescence intensity (normalized): −456
[1]; Not autoclaved dye + nutrient medium, non-heat shocked, 0 spores, 44 min
  Fluorescence intensity (normalized): −484
[1]; Not autoclaved dye + nutrient medium, non-heat shocked, 0 spores, 58 min
  Fluorescence intensity (normalized): −476
[2]; 0 min
  Fluorescence Intensity of Spore Suspension with Dye: 2005
  Fluorescence Intensity of Spore Suspension with Dye and Nutrients: 2687
[2]; 10 min
  Fluorescence Intensity of Spore Suspension with Dye: 2665
  Fluorescence Intensity of Spore Suspension with Dye and Nutrients: 2777
[2]; 20 min
  Fluorescence Intensity of Spore Suspension with Dye: 4069
  Fluorescence Intensity of Spore Suspension with Dye and Nutrients: 4241
[2]; 30 min
  Fluorescence Intensity of Spore Suspension with Dye: 5655
  Fluorescence Intensity of Spore Suspension with Dye and Nutrients: 7842
[2]; 40 min
  Fluorescence Intensity of Spore Suspension with Dye: 7091
  Fluorescence Intensity of Spore Suspension with Dye and Nutrients: 11708
[3]; [4]
  Average Change in Fluorescence at 30 min: 1462
  Average Change in Fluorescence at 60 min: 1808
[3]; [5]
  Average Change in Fluorescence at 30 min: 2607
  Average Change in Fluorescence at 60 min: 2762
[3]; [6]
  Average Change in Fluorescence at 30 min: 201
  Average Change in Fluorescence at 60 min: 22
[3]; [7]
  Average Change in Fluorescence at 30 min: 279
  Average Change in Fluorescence at 60 min: 386
[3]; [8]
  Average Change in Fluorescence at 30 min: 2774
  Average Change in Fluorescence at 60 min: 3347
[3]; [9]
  Average Change in Fluorescence at 30 min: 383
  Average Change in Fluorescence at 60 min: 353
